One experiment deals with HepG2. Description: Antitumor activity against human HepG2 cells after 48 hrs by Sulphorhodamine-B assay. The settings on record: HepG2, 48 h. On the technique in general: The SRB assay estimates cell density from bound dye.
The next experiment deals with MCF7. Description: Antitumor activity against human MCF7 cells after 48 hrs by Sulphorhodamine-B assay. The settings on record: MCF7, 48 h.
Another experiment relates to HeLa. Description: Antitumor activity against human HeLa cells after 48 hrs by Sulphorhodamine-B assay.

Each structure is given as a SMILES string. ≈ marks a conversion by molar mass, not a printed value.

By IC50 is commonly meant the concentration that inhibits the measured activity by half. For the compound `Cc1ccc(C(=O)Nc2ccc(Cl)cc2C(N)=O)cc1`, the IC50 came to 21 µg/mL (≈ 72.7 µM) with HepG2, 5.39 µg/mL (≈ 18.7 µM) in the experiment with MCF7 and 8.23 µg/mL (≈ 28.5 µM) with HeLa.

With `Cc1ccc(-c2nc(S(=O)(=O)Cc3ccccc3)c3cc(Cl)ccc3n2)cc1`, the values for the IC50 in the experiment with HepG2, in the experiment on MCF7 and in the experiment with HeLa were 7.21 µg/mL (≈ 17.6 µM), 3.96 µg/mL (≈ 9.68 µM) and 7.01 µg/mL (≈ 17.1 µM), respectively.

Consider `Cc1ccc(-c2nc(SCC(=O)Nc3ccccc3)c3cc(Cl)ccc3n2)cc1`, for which the IC50 in the experiment on HepG2 worked out at 14.3 µg/mL (≈ 34.1 µM); with MCF7, 4.78 µg/mL (≈ 11.4 µM); in the experiment on HeLa it was 11.7 µg/mL (≈ 27.9 µM).

As to `Cc1ccc(-c2nc3ccc(Cl)cc3c(=O)[nH]2)cc1`, the IC50 with HepG2 came to 9.86 µg/mL (≈ 36.4 µM); in the experiment on MCF7, 4.98 µg/mL (≈ 18.4 µM); in the experiment on HeLa, 10.1 µg/mL (≈ 37.3 µM).

As for `Cc1ccc(C(=O)Nc2ccc(Cl)cc2C(=O)O)cc1`, the IC50 in the experiment on HepG2 stood at 15.9 µg/mL (≈ 55.1 µM); in the experiment on MCF7, 14.7 µg/mL (≈ 50.7 µM); in the experiment with HeLa it was 18.9 µg/mL (≈ 65.2 µM).

For the compound `Cc1ccc(-c2nc3ccc(Cl)cc3c(=O)n2C)cc1`, the half-maximal inhibitory concentration (IC50) was 4.17 µg/mL (≈ 14.6 µM) in the experiment with HepG2, 3.35 µg/mL (≈ 11.8 µM) in the experiment with MCF7 and 4.37 µg/mL (≈ 15.3 µM) in the experiment with HeLa.

As to `Cc1ccc(-c2nc(Sc3ncccc3[N+](=O)[O-])c3cc(Cl)ccc3n2)cc1`, the IC50 in the experiment with HepG2 is 5.59 µg/mL (≈ 13.7 µM); with MCF7, 3.56 µg/mL (≈ 8.71 µM); in the experiment with HeLa, 5.39 µg/mL (≈ 13.2 µM).

With `Cc1ccc(-c2nc(SCC(N)=O)c3cc(Cl)ccc3n2)cc1`, the IC50 with HepG2 amounted to 9.45 µg/mL (≈ 27.5 µM); in the experiment on MCF7, 5.59 µg/mL (≈ 16.3 µM); with HeLa, 4.98 µg/mL (≈ 14.5 µM).

For `Cc1ccc(-c2nc(SCC(=O)Nc3ccc(F)cc3)c3cc(Cl)ccc3n2)cc1`, the IC50 in the experiment on HepG2 is 18.4 µg/mL (≈ 42 µM); in the experiment with MCF7, 14.7 µg/mL (≈ 33.6 µM); in the experiment on HeLa it was 10.5 µg/mL (≈ 24 µM).

On to `Cc1ccc(-c2nc(N)c3cc(Cl)ccc3n2)cc1`, for which the IC50 was found to be 14.5 µg/mL (≈ 53.8 µM) with HepG2, 3.76 µg/mL (≈ 13.9 µM) with MCF7 and 3.56 µg/mL (≈ 13.2 µM) in the experiment with HeLa.

Take `Cc1ccc(-c2nc3ccc(Cl)cc3c(=S)[nH]2)cc1`: the results for the IC50 in the experiment on HepG2, in the experiment with MCF7 and in the experiment with HeLa were 7.01 µg/mL (≈ 24.4 µM), 3.35 µg/mL (≈ 11.7 µM) and 4.57 µg/mL (≈ 15.9 µM), respectively.

For `Cc1ccc(-c2nc3ccc(Cl)cc3c(=O)n2N)cc1`, the IC50 in the experiment on HepG2 came out at 18.4 µg/mL (≈ 64.4 µM); in the experiment on MCF7, 5.39 µg/mL (≈ 18.9 µM); in the experiment with HeLa, 12.1 µg/mL (≈ 42.3 µM).

Take `CCOc1ccc(NC(=O)CSc2nc(-c3ccc(C)cc3)nc3ccc(Cl)cc23)cc1`: the IC50 worked out at 5.99 µg/mL (≈ 12.9 µM) in the experiment on HepG2, 15.8 µg/mL (≈ 34.1 µM) in the experiment with MCF7 and 10.1 µg/mL (≈ 21.8 µM) with HeLa.

As for `Cc1ccc(-c2nc(SCCO)c3cc(Cl)ccc3n2)cc1`, the results for the IC50 with HepG2, in the experiment with MCF7 and in the experiment with HeLa were 9.04 µg/mL (≈ 27.3 µM), 3.76 µg/mL (≈ 11.4 µM) and 9.25 µg/mL (≈ 28 µM), respectively.

In the case of `Cc1ccc(-c2nc3ccc(Cl)cc3c(=S)o2)cc1`, the IC50 with HepG2 worked out at 11.1 µg/mL (≈ 38.6 µM); in the experiment with MCF7 it was 5.18 µg/mL (≈ 18 µM); with HeLa, 13.3 µg/mL (≈ 46.2 µM).

For `Cc1ccc(-c2nc(NC(=O)c3ccccc3)c3cc(Cl)ccc3n2)cc1`, the values for the IC50 in the experiment on HepG2, with MCF7 and in the experiment on HeLa were 17.5 µg/mL (≈ 46.8 µM), 16.1 µg/mL (≈ 43.1 µM) and 16.2 µg/mL (≈ 43.3 µM), respectively.

As for `Cc1ccc(C(=O)Nc2ccc(Cl)cc2C(=S)NN)cc1`, the IC50 with HepG2 worked out at 5.59 µg/mL (≈ 17.5 µM); in the experiment with MCF7, 3.35 µg/mL (≈ 10.5 µM); in the experiment with HeLa it was 4.98 µg/mL (≈ 15.6 µM).

On to `CSc1nc(-c2ccc(C)cc2)nc2ccc(Cl)cc12`, for which the results for the 50% inhibitory concentration (IC50) with HepG2, in the experiment with MCF7 and with HeLa were 13.3 µg/mL (≈ 44.2 µM), 8.64 µg/mL (≈ 28.7 µM) and 14.7 µg/mL (≈ 48.9 µM), respectively.

Consider `Cc1ccc(NC(=O)CSc2nc(-c3ccc(C)cc3)nc3ccc(Cl)cc23)cc1`, for which the IC50 with HepG2 is 18.8 µg/mL (≈ 43.3 µM); in the experiment with MCF7, 5.79 µg/mL (≈ 13.3 µM); with HeLa it was 12.3 µg/mL (≈ 28.3 µM).

For the compound `Cc1ccc(-c2nc(SCc3ccccc3)c3cc(Cl)ccc3n2)cc1`, the IC50 was 18.4 µg/mL (≈ 48.8 µM) in the experiment on HepG2, 9.66 µg/mL (≈ 25.6 µM) in the experiment with MCF7 and 11.3 µg/mL (≈ 30 µM) in the experiment with HeLa.

With `Cc1ccc(-c2nc3ccc(Cl)cc3c(=S)n2N)cc1`, the IC50 in the experiment on HepG2 was determined as 17 µg/mL (≈ 56.3 µM); with MCF7, 9.25 µg/mL (≈ 30.6 µM); in the experiment on HeLa, 14 µg/mL (≈ 46.4 µM).

As for `Cc1ccc(-c2nc(NOC(=O)c3ccccc3)c3cc(Cl)ccc3n2)cc1`, the IC50 was 12.1 µg/mL (≈ 31 µM) in the experiment with HepG2, 5.59 µg/mL (≈ 14.3 µM) in the experiment on MCF7 and 5.18 µg/mL (≈ 13.3 µM) in the experiment on HeLa.

For the compound `COc1cccc2c1C(=O)c1c(O)c3c(c(O)c1C2=O)C[C@@](O)(C(=O)CO)C[C@@H]3O[C@H]1C[C@H](N)[C@H](O)[C@H](C)O1` [DOXORUBICIN], the half-maximal inhibitory concentration (IC50) with HepG2 worked out at 4.57 µg/mL (≈ 8.41 µM); in the experiment with MCF7 it was 3.76 µg/mL (≈ 6.92 µM); in the experiment with HeLa, 3.64 µg/mL (≈ 6.7 µM).

As for `C=CCSc1nc(-c2ccc(C)cc2)nc2ccc(Cl)cc12`, the results for the IC50 in the experiment on HepG2, in the experiment on MCF7 and with HeLa were 23.9 µg/mL (≈ 73.1 µM), 8.03 µg/mL (≈ 24.6 µM) and 9.66 µg/mL (≈ 29.6 µM), respectively.

Consider `Cc1ccc(-c2nc(NN)c3cc(Cl)ccc3n2)cc1`, for which the IC50 in the experiment with HepG2 was 4.17 µg/mL (≈ 14.6 µM); in the experiment on MCF7, 3.76 µg/mL (≈ 13.2 µM); in the experiment with HeLa, 3.98 µg/mL (≈ 14 µM).

On to `Cc1ccc(-c2nc(SCC#N)c3cc(Cl)ccc3n2)cc1`, for which the IC50 was 4.37 µg/mL (≈ 13.4 µM) in the experiment on HepG2, 3.35 µg/mL (≈ 10.3 µM) in the experiment on MCF7 and 3.76 µg/mL (≈ 11.5 µM) with HeLa.

As to `Cc1ccc(-c2nc(NO)c3cc(Cl)ccc3n2)cc1`, the values for the IC50 in the experiment with HepG2, in the experiment with MCF7 and in the experiment with HeLa were 23.1 µg/mL (≈ 80.8 µM), 6.81 µg/mL (≈ 23.8 µM) and 12.7 µg/mL (≈ 44.4 µM), respectively.

For the compound `Cc1ccc(-c2nc3ccc(Cl)cc3c(=O)o2)cc1`, the values for the IC50 with HepG2, in the experiment on MCF7 and with HeLa were 22.5 µg/mL (≈ 82.8 µM), 10.5 µg/mL (≈ 38.6 µM) and 8.23 µg/mL (≈ 30.3 µM), respectively.

The values are drawn from ChEMBL document CHEMBL1240450, “Design, synthesis and biological evaluation of novel quinazoline derivatives as potential antitumor agents: molecular docking study” (Eur J Med Chem, 2010).
